Several values for one entry are separate records, joined by “and”; a condition that tells them apart may be missing. Equal values may be shown once. Inconclusive results and toxic doses are left out.

The test has as its system BDF1 mice, P388 leukemia ip, median survival T/C. The test is described as follows: NCI In Vivo Anticancer Drug Screen. Data for tumor model P388 Leukemia (intraperitoneal) in B6D2F1 (BDF1) mice. The note with it: endpoint: median survival time, higher = longer survival. In a few lines:
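Antitumour effect was judged in vivo: survival in drug-treated mice, normalised to that of vehicle-dosed controls, gives the reported T/C.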

The mark [1] stands for this setting: dose: 100.0 mg/kg/injection, schedule: Q01DX009 (ip), vehicle: saline with Tween-80.
Where [2] appears, read: dose: 400.0 mg/kg/injection, schedule: Q01DX009 (ip), vehicle: saline with Tween-80.
[3] abbreviates: dose: 25.0 mg/kg/injection, schedule: Q01DX009 (ip), vehicle: saline.
[4] abbreviates: dose: 50.0 mg/kg/injection, schedule: Q01DX009 (ip), vehicle: saline.
[5] abbreviates: dose: 100.0 mg/kg/injection, schedule: Q01DX009 (ip), vehicle: saline.
The mark [6] stands for this setting: dose: 100.0 mg/kg/injection, schedule: Q04DX003 (ip), vehicle: saline.
Where [7] appears, read: dose: 200.0 mg/kg/injection, schedule: Q01DX009 (ip), vehicle: saline.
Where [8] appears, read: dose: 200.0 mg/kg/injection, schedule: Q04DX003 (ip), vehicle: saline.
[9] abbreviates: dose: 400.0 mg/kg/injection, schedule: Q04DX003 (ip), vehicle: saline.
Setting [10] is: dose: 25.0 mg/kg/injection, schedule: Q01DX009 (ip), vehicle: saline with Tween-80.
Setting [11] is: dose: 50.0 mg/kg/injection, schedule: Q01DX009 (ip), vehicle: saline with Tween-80.
The mark [12] stands for this setting: dose: 50.0 mg/kg/injection, schedule: Q04DX003 (ip), vehicle: saline with Tween-80.
Setting [13] is: dose: 100.0 mg/kg/injection, schedule: Q04DX003 (ip), vehicle: saline with Tween-80.
The mark [14] stands for this setting: dose: 6.25 mg/kg/injection, schedule: Q01DX009 (ip), vehicle: saline.
Setting [15] is: dose: 12.5 mg/kg/injection, schedule: Q01DX009 (ip), vehicle: saline.
[16] abbreviates: dose: 25.0 mg/kg/injection, schedule: Q04DX003 (ip), vehicle: Klucel (hydroxypropylcellulose) (HPC).
Setting [17] is: dose: 50.0 mg/kg/injection, schedule: Q04DX003 (ip), vehicle: Klucel (hydroxypropylcellulose) (HPC).
Setting [18] is: dose: 50.0 mg/kg/injection, schedule: Q04DX003 (ip), vehicle: saline.
[19] abbreviates: dose: 200.0 mg/kg/injection, schedule: Q01DX009 (ip), vehicle: saline with Tween-80.
Setting [20] is: dose: 6.25 mg/kg/injection, schedule: Q04DX003 (ip), vehicle: saline.
The mark [21] stands for this setting: dose: 12.5 mg/kg/injection, schedule: Q04DX003 (ip), vehicle: saline.
The mark [22] stands for this setting: dose: 25.0 mg/kg/injection, schedule: Q04DX003 (ip), vehicle: saline.

In the case of `O=[N+]([O-])c1ccc2c(N=Nc3c(O)ccc4ccccc34)c(O)cc(S(=O)(=O)O)c2c1`, the T/C by setting is: (dose: 25.0 mg/kg/injection, schedule: Q01DX001 (ip), vehicle: saline with Tween-80) 104 % of control; (dose: 50.0 mg/kg/injection, schedule: Q01DX001 (ip), vehicle: saline with Tween-80) 100 % of control; (dose: 100.0 mg/kg/injection, schedule: Q01DX001 (ip), vehicle: saline with Tween-80) 100 % of control; under setting [1], 104 % of control; under setting [2], 100 % of control.
With `CCOC(=O)/C=C/c1c[nH]c(=O)[nH]c1=O`, the T/C runs as follows: under setting [3], 101 % of control; under setting [4], 101 % of control; under setting [5], 101 % of control; under setting [6], 114 % of control; under setting [7], 104 % of control; under setting [8], 96 % of control. Further, the T/C under setting [9] is 96 % of control.
For `ClCCN(CCCN(CCCl)c1ccccc1)c1ccccc1`, the T/C was 118 % of control (dose: 100.0 mg/kg/injection, schedule: Q01DX001 (ip), vehicle: saline + alcohol); 156 % of control (dose: 200.0 mg/kg/injection, schedule: Q01DX001 (ip), vehicle: saline with Tween-80); 151 % of control (dose: 400.0 mg/kg/injection, schedule: Q01DX001 (ip), vehicle: saline + alcohol); 166 % of control (dose: 400.0 mg/kg/injection, schedule: Q01DX001 (ip), vehicle: saline with Tween-80); 205 % of control (dose: 800.0 mg/kg/injection, schedule: Q01DX001 (ip), vehicle: saline with Tween-80).
Turning to `OCCOc1c(Cl)c(Cl)c(Cl)c(Cl)c1Cl`, the T/C under setting [10] was 100 % of control; the T/C under setting [11] is 104 % of control; the T/C under setting [12] is 100 % of control; the T/C under setting [1] is 118 % of control; the T/C under setting [13] was 100 % of control.
`NC(CSC(c1ccccc1)(c1ccccc1)c1ccc2ccccc2c1)C(=O)O` (stereo not drawn): the T/C is 173 % of control (dose: 2.75 mg/kg/injection, schedule: Q01DX009 (ip), vehicle: saline); 227 % of control (dose: 4.12 mg/kg/injection, schedule: Q01DX009 (ip), vehicle: saline); 250 % of control under setting [14]; 216 % of control (dose: 12.5 mg/kg/injection, schedule: Q01DX009 (ip), vehicle: Klucel (hydroxypropylcellulose) (HPC)); 89 % of control under setting [15]; 333 % of control (dose: 25.0 mg/kg/injection, schedule: Q01DX009 (ip), vehicle: Klucel (hydroxypropylcellulose) (HPC)). In addition, the T/C runs as follows: under setting [16], 210 % of control; (dose: 29.0 mg/kg/injection, schedule: Q04DX003 (ip), vehicle: saline) 200 % of control; (dose: 45.0 mg/kg/injection, schedule: Q04DX003 (ip), vehicle: saline) 86 % of control; (dose: 50.0 mg/kg/injection, schedule: Q01DX009 (ip), vehicle: Klucel (hydroxypropylcellulose) (HPC)) 200 % of control; under setting [17], 200 % of control; under setting [18], 300 % of control. The T/C is, setting by setting: (dose: 66.0 mg/kg/injection, schedule: Q04DX003 (ip), vehicle: saline) 272 % of control; (dose: 100.0 mg/kg/injection, schedule: Q04DX003 (ip), vehicle: Klucel (hydroxypropylcellulose) (HPC)) 300 % of control; under setting [6], 300 % of control and 154 % of control; under setting [8], 95 % of control.
With `C=C1C(=O)O[C@@H]2C[C@@H](C)[C@@H]3[C@@H](OC4OC(COC(C)=O)C(O)C(O)C4O)CC(=O)[C@@]3(C)C[C@H]12` (stereo partly drawn), the T/C (dose: 2.8 mg/kg/injection, schedule: Q01DX009 (ip), vehicle: saline) was 100 % of control; the T/C (dose: 4.2 mg/kg/injection, schedule: Q01DX009 (ip), vehicle: saline) was 122 % of control; the T/C under setting [4] is 100 % of control; the T/C (dose: 75.0 mg/kg/injection, schedule: Q01DX009 (ip), vehicle: saline) is 105 % of control.
In the case of `CCN(CC)c1c(C)nnc2c3c(-c4ccccc4)c(-c4ccccc4)nnc3nn12`, the T/C reads like this: under setting [12], 91 % of control and 97 % of control (2×); under setting [13], 88 % of control and 91 % of control and 97 % of control; (dose: 200.0 mg/kg/injection, schedule: Q04DX003 (ip), vehicle: saline with Tween-80) 97 % of control and 108 % of control and 123 % of control; (dose: 400.0 mg/kg/injection, schedule: Q04DX003 (ip), vehicle: saline with Tween-80) 92 % of control and 113 % of control.
Turning to `OCC1CSC2(CCCCC2)N1` (stereo not drawn), the T/C is, setting by setting: under setting [11], 105 % of control; under setting [1], 105 % of control; under setting [19], 93 % of control.
As for `O=C1OC(c2ccccc2)(c2ccccc2)Cc2ccccc21`, the T/C runs as follows: under setting [1], 105 % of control; under setting [19], 105 % of control; under setting [2], 100 % of control.
`CC1CCC2(OC1)OC1C(O)C3C4CCC5CC(OC6OC(CO)C(OC7OC(CO)C(O)C(OC8OCC(O)C(O)C8O)C7OC7OC(CO)C(O)C(OC8OC(CO)C(O)C(O)C8O)C7O)C(O)C6O)C(O)CC5(C)C4CCC3(C)C1C2C` (stereo not drawn): the T/C reads like this: (dose: 6.25 mg/kg/injection, schedule: Q01DX009 (ip), vehicle: saline with Tween-80) 100 % of control; under setting [20], 92 % of control; (dose: 12.5 mg/kg/injection, schedule: Q01DX009 (ip), vehicle: saline with Tween-80) 95 % of control; under setting [21], 92 % of control; under setting [10], 104 % of control; under setting [22], 96 % of control.
Consider `CC(C)(O)c1cccc(F)c1`, for which the T/C under setting [11] is 100 % of control, the T/C under setting [1] is 104 % of control and the T/C under setting [19] is 109 % of control.
As to `CC1CN1P(=O)(N1CC2CCC(CC2)C1)N1CC1C` (stereo not drawn), the T/C (dose: 14.0 mg/kg/injection, schedule: Q01DX009 (ip), vehicle: saline with Tween-80) is 113 % of control; the T/C (dose: 21.0 mg/kg/injection, schedule: Q01DX009 (ip), vehicle: saline with Tween-80) was 122 % of control; the T/C (dose: 33.0 mg/kg/injection, schedule: Q01DX009 (ip), vehicle: saline with Tween-80) is 159 % of control; the T/C under setting [11] is 154 % of control; the T/C under setting [1] was 86 % of control.
As for `CC(CN(C)C)CN1c2ccccc2Sc2ccccc21` (stereo not drawn), the T/C is 100 % of control under setting [14]; 100 % of control under setting [20]; 108 % of control and 90 % of control under setting [15]; 100 % of control (dose: 12.5 mg/kg/injection, schedule: Q04DX003 (ip), vehicle: Klucel (hydroxypropylcellulose) (HPC)); 110 % of control (dose: 12.5 mg/kg/injection, schedule: Q04DX003 (ip), vehicle: saline with Tween-80); 108 % of control under setting [21]. Further, the T/C is, setting by setting: under setting [10], 109 % of control; under setting [3], 112 % of control and 109 % of control; under setting [16], 124 % of control; under setting [22], 108 % of control; under setting [4], 108 % of control; under setting [17], 124 % of control. Moreover, the T/C is 89 % of control under setting [12] and 120 % of control under setting [18].
Regarding `NC(Cc1ccc(O)c(I)c1)C(=O)O` (stereo not drawn), the T/C under setting [3] was 109 % of control; the T/C under setting [4] was 113 % of control; the T/C under setting [18] is 110 % of control; the T/C under setting [5] was 120 % of control; the T/C under setting [6] was 110 % of control; the T/C under setting [7] is 95 % of control. Moreover, the T/C was 115 % of control under setting [8] and 110 % of control under setting [9].

These data come from PubChem BioAssay AID328 (DTP/NCI, 2004).
